The values that follow come from patent US9216997B2, “Tri-heterocyclic derivatives, preparation process and uses thereof” (SHANGHAI DE NOVO PHARMATECH CO LTD., priority 2011, dated 2015).

Like-named read-outs stand apart in the source and are kept apart here.

For one assay, the system named is MV4-11 cell. The assay is described as follows: MV4-11 cell proliferation assay (CellTiter-Glo). It counts as cell-based, human. Particulars: MV4-11 cells, 72 hours, read-out: IC50 inhibiting MV4-11 cell proliferation. The procedure:
Test compounds were prepared in 100% DMSO and added to the cells to achieve final concentrations from 0.2 uM to […] (10 concentration points in 3 fold serial dilution). The culture plates were then incubated at 37 C in 5% CO2 for 72 hours.
After 72 hours, the cell morphology was observed under an inverted microscope. Cell viability was then quantified at room temp using a CellTiter-Glo assay (Promega G7571) following the manufacture's instruction. Briefly, a volume of 100 ul Celltiter-Glo reagenet was added to each well to induce cell lysis. After 10 min incubation at RT, a luminescent signal was produced by measuring the amount of ATP. The signal was directly proportional to the number of viable cells present in culture.

The target of a further assay is FLT3 (Homo sapiens (Human), UniProt P36888). The assay is described as follows: FLT3 kinase inhibition assay (Caliper mobility shift assay). Conditions: 0.9 nM purified FLT3, 97 uM ATP, 28° C., 60 min; read-out: IC50 inhibiting the FLT3 kinase. It counts as biochemical. How it is done: The average of inhibitory rate of Flt3 kinase and IC50 was determined by a Caliper's mobility shift assay (MSA).
FLT3, sequence (P36888 27-993): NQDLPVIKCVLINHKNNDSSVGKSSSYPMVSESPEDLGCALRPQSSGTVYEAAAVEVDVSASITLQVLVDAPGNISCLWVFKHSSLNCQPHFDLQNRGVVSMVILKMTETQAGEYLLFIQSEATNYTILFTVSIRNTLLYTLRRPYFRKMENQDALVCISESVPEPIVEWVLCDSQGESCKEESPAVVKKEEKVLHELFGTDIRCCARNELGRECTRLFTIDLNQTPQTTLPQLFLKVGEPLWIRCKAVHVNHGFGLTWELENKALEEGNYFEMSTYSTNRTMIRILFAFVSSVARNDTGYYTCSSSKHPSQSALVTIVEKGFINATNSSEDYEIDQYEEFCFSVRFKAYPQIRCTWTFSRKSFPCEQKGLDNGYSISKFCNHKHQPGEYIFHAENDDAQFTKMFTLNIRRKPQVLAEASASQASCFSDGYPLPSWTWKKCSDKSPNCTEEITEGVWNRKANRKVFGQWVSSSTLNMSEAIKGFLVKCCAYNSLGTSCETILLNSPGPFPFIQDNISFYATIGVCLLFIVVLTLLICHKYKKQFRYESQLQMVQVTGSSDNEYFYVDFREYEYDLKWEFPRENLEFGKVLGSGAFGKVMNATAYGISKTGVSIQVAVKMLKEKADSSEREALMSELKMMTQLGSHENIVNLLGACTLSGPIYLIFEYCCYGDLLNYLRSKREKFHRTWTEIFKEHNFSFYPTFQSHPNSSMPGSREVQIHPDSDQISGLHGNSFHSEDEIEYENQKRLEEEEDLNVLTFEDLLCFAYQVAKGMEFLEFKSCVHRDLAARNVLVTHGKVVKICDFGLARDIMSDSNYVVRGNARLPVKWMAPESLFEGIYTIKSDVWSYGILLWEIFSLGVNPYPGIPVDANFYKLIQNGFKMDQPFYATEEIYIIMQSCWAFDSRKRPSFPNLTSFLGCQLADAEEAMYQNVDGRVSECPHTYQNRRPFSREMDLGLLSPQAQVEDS
FLT3 is a receptor tyrosine kinase involved in survival and proliferation of leukemic cells. Constitutively activating FLT3 mutations has been found in about 30% of all patients with acute myeloid leukemia (AML). The tested compounds were screened for their ability to inhibit FLT3 kinase activity using Caliper's mobility shift assay (MSA). The assay uses a microfluidic chip to measure the conversion of a fluorescent peptide substrate to a phosphorylated product following separation by electrophoresis.
Data were collected on Caliper and converted into inhibition values. IC50 values were obtained using XLfit graphic program.

Assay [1] has as its system MV4-11 acute myeloid leukemia zenograft tumor model. The assay is described as follows: MV4-11 acute myeloid leukemia xenograft tumor model. Particulars: 3 mg/kg, po, qd, 22 days; tumor-bearing NOD/SCID mice. It counts as in vivo, NOD/SCID female mice. How it is done: Compound C (18 mg) in 22% 2-hydroxypropyl-β=cyclodextrin (60 ml), ultrasonic 15 min to dissolve, an average of 2.14 ml divided into each of the small bottle, reserved 22 bottles for experiment.
6-8 weeks NOD/SCID female mice (18-25 g) were used. Each mouse was inoculated subcutaneously at the right flank with MV4-11 tumor cells (1×10^7) in 0.1 ml of PBS/Matrigel (1:1) for tumor development. The treatments were started when the mean tumor size reached 188 mm^3. The animals were separated even as test and control group randomly, and each group is consisted of 6 tumor-bearing mice. The test articles were orally administered (2.14 ml) to the tumor-bearing mice once a day. The date of tumor cell inoculation is denoted as day 0. The tumor volume was measured every four days, and the animals were scarified at 22 days. Statistical analyses of difference in tumor volume among the groups were evaluated using a one-way ANOVA followed by individual comparisons using Games-Howell (equal variance not assumed).
All data were analyzed using SPSS 17.0. p<0.05 was considered to be statistically significant. The antitumor activities of compounds of disclose are calculated by the formula: T C %=TRTV/CRTV×100%. (TRTV: drug treated group RTV; CRTV: vehicle treated group RTV). Evaluation standard: T/C (%)>40% considered as not effective; T/C (%) 40% considered as effective with P<0.05.

Take `CC(C)(C)c1cc(NC(=O)Nc2ccc(-c3cn4c(n3)sc3nc(OCC5(NS(C)(=O)=O)CC5)ccc34)cc2)no1` [compound 35-3]: the IC50 with MV4-11 cell (Homo sapiens) was found to be 12.9 nM.

On to `CN(C)CCNc1ncc2c(n1)sc1nc(-c3ccc(NC(=O)Nc4cc(C(C)(C)C)on4)cc3)cn12` [Compound 97-1], for which the IC50 in the assay with MV4-11 cell (Homo sapiens) was determined as 0.03 nM. Same read-out and setting: in the case of `CN1CCOC(COc2ccc3c(n2)sc2nc(-c4ccc(NC(=O)Nc5cc(C(C)(C)C)on5)cc4)cn23)C1` (centres unmarked) [compound 28-13] it was 0.3 nM; in that of `CNC1(COc2ccc3c(c2)sc2cc(-c4ccc(NC(=O)Nc5cc(C(C)(C)C)on5)cc4)cn23)CC1` [compound 80], 4.7 nM. Consider `CC(C)(C)c1cc(NC(=O)Nc2ccc(-c3cn4c(n3)sc3nc(OCC5(N)CC5)ccc34)cc2)no1` [compound 35-1], for which the figures for the IC50 on FLT3 and in the assay with MV4-11 cell (Homo sapiens) were 38 nM and 1.4 nM, respectively. For the compound `CC(C)(C)c1cc(NC(=O)Nc2ccc(-c3cn4c(n3)sc3nc(NCCN5C[C@@H]6C[C@H]5CO6)ncc34)cc2)no1` [Compound 97-3], in the assay on MV4-11 cell (Homo sapiens), the IC50 turned out to be 0.07 nM. Take `CC(C)(C)c1cc(NC(=O)Nc2ccc(-c3cn4c(n3)sc3nc(NCCN5CCOCC5)ccc34)cc2)no1` [compound 53-1]: the IC50 came out at 29 nM at FLT3 and 0.2 nM in the assay with MV4-11 cell (Homo sapiens). `CN1C[C@@H]2C[C@H]1CN2CCOc1ccc2c(n1)sc1nc(-c3ccc(NC(=O)Nc4cc(C(C)(C)C)on4)cc3)cn12` [compound 28-8]: the IC50 on FLT3 worked out at 10.9 nM; in the assay on MV4-11 cell (Homo sapiens), 0.2 nM. For `CC(C)(C)c1cc(NC(=O)Nc2ccc(-c3cn4c(n3)sc3nc(NCC5(N)CC5)ccc34)cc2)no1` [compound 63-1], the IC50 in the assay on MV4-11 cell (Homo sapiens) was determined as 0.96 nM. The same measure, in the same setting: in the case of `CC(C)(C)c1cc(NC(=O)Nc2ccc(-c3cn4c(n3)sc3nc(OCC5CNCCO5)ccc34)cc2)no1` (centres unmarked) [compound 28-12] it was 0.47 nM.

Regarding `CC(C)(C)c1cc(NC(=O)Nc2ccc(-c3cn4c(n3)sc3nc(N5CCOCC5)ncc34)cc2)no1` [compound 8-1], on FLT3, the IC50 was 19 nM. For `CC(C)(C)c1cc(NC(=O)Nc2ccc(-c3cn4c(n3)sc3nc(OCC5CNC5)ccc34)cc2)no1` [compound 28-11], the IC50 in the assay on MV4-11 cell (Homo sapiens) came out at 0.84 nM. With `CC(C)(C)c1cc(NC(=O)Nc2ccc(-c3cn4c(n3)sc3nc(N5CCC(N6CCOCC6)CC5)ccc34)cc2)no1` [compound 89-5], the IC50 was found to be 34 nM at FLT3 and 0.29 nM with MV4-11 cell.

Turning to `CN(C)CCOc1ccc2c(n1)sc1nc(-c3ccc(NC(=O)Nc4cc(C(C)(C)C)on4)cc3)cn12` [compound 28-2], the IC50 at FLT3 was determined as 18 nM; with MV4-11 cell (Homo sapiens) it was 0.2 nM.

With `CC(=O)NC1(COc2ccc3c(n2)sc2nc(-c4ccc(NC(=O)Nc5cc(C(C)(C)C)on5)cc4)cn23)CC1` [compound 35-2], the IC50 with MV4-11 cell (Homo sapiens) is 0.52 nM. For `CC(C)(C)c1cc(NC(=O)Nc2ccc(-c3cn4c(n3)sc3nc(OCCN5CCNCC5)ccc34)cc2)no1` [compound 28-3], the IC50 on FLT3 is 34 nM; in the assay on MV4-11 cell (Homo sapiens), 0.4 nM. Consider `CC(C)(C)c1cc(NC(=O)Nc2ccc(-c3cn4c(n3)sc3nc(N5CCNCC5)ncc34)cc2)no1` [compound 8-4], for which the IC50 in the assay on MV4-11 cell (Homo sapiens) came out at 1.1 nM.

For the compound `CN(CCN1CCOCC1)c1ccc2c(n1)sc1nc(-c3ccc(NC(=O)Nc4cc(C(C)(C)C)on4)cc3)cn12` [compound 53-2], the IC50 on FLT3 stood at 43 nM; with MV4-11 cell (Homo sapiens) it was 0.5 nM. As to `CC(C)(C)c1cc(NC(=O)Nc2ccc(-c3cn4c(n3)sc3nc(OCCN5CCOCC5)ccc34)cc2)no1` [compound 28-1], the IC50 in the assay with MV4-11 cell (Homo sapiens) stood at 0.7 nM.

`CC(C)(C)c1cc(NC(=O)Nc2ccc(-c3cn4c(n3)sc3nc(OCCN5C[C@@H]6C[C@H]5CO6)ccc34)cc2)no1` [compound 28-15]: the IC50 on FLT3 came out at 68 nM; in the assay with MV4-11 cell (Homo sapiens), 0.05 nM. In the same order, the values of `CC(C)(C)c1cc(NC(=O)Nc2ccc(-c3cn4c(n3)sc3nc(OCCN5C[C@@H]6C[C@H]5CN6)ccc34)cc2)no1` [compound 28-7] are 1.2 nM and 0.3 nM. In the same order, the values of `CN1CCC(COc2ccc3c(n2)sc2nc(-c4ccc(NC(=O)Nc5cc(C(C)(C)C)on5)cc4)cn23)CC1` [compound 28-10] are 13 nM and 0.3 nM. Turning to `CCN(CC)CCNc1ccc2c(n1)sc1nc(-c3ccc(NC(=O)Nc4cc(C(C)(C)C)on4)cc3)cn12` [compound 89-3], the figures for the IC50 at FLT3 and in the assay with MV4-11 cell were 19 nM and 0.04 nM, respectively. For the compound `CC(C)(C)c1cc(NC(=O)Nc2ccc(-c3cn4c(n3)sc3nc(N5CCC(N6CCOCC6)CC5)ncc34)cc2)no1` [compound 8-6], the IC50 in the assay on MV4-11 cell (Homo sapiens) turned out to be 1.26 nM. In the case of `CC(C)(C)c1cc(NC(=O)Nc2ccc(-c3cn4c(n3)sc3nc(OCC5CCNCC5)ccc34)cc2)no1` [compound 28-9], the IC50 came to 11 nM on FLT3 and 0.3 nM with MV4-11 cell (Homo sapiens). For `CNC1(COc2ccc3c(n2)sc2nc(-c4ccc(NC(=O)Nc5cc(C(C)(C)C)on5)cc4)cn23)CC1` [compound 39-1], the figures for the IC50 at FLT3 and with MV4-11 cell were 52 nM and 0.5 nM, respectively.

With `CC(C)(C)c1cc(NC(=O)Nc2ccc(-c3cn4c(n3)sc3nc(NCCN5C[C@@H]6C[C@H]5CO6)ccc34)cc2)no1` [compound 89-4], the IC50 at FLT3 was determined as 28 nM; in the assay on MV4-11 cell, 0.08 nM. As to `CC(C)(C)c1cc(NC(=O)Nc2ccc(-c3cn4c(n3)sc3cc(OCCN5CCOCC5)ccc34)cc2)no1` [Quizartinib, reference compound], the T/C in assay [1] worked out at 9%. Besides, the IC50 in the assay on MV4-11 cell (Homo sapiens) was 0.56 nM. Turning to `CN(C)CCNc1ccc2c(n1)sc1nc(-c3ccc(NC(=O)Nc4cc(C(C)(C)C)on4)cc3)cn12` [compound 89-1], the figures for the IC50 at FLT3 and in the assay on MV4-11 cell were 10 nM and 0.03 nM, respectively.

Consider `CCN(CC)CCNc1ncc2c(n1)sc1nc(-c3ccc(NC(=O)Nc4cc(C(C)(C)C)on4)cc3)cn12` [Compound 97-2], for which the IC50 in the assay with MV4-11 cell (Homo sapiens) was found to be 0.42 nM. For `CCN(CC)CCOc1ccc2c(n1)sc1nc(-c3ccc(NC(=O)Nc4cc(C(C)(C)C)on4)cc3)cn12` [compound 28-14], the IC50 turned out to be 9.6 nM at FLT3 and 0.03 nM in the assay on MV4-11 cell (Homo sapiens). For `CC(C)(C)c1cc(NC(=O)Nc2ccc(-c3cn4c(n3)sc3nc(N5CCOCC5)ccc34)cc2)no1` [compound 46], the IC50 with MV4-11 cell (Homo sapiens) stood at 0.8 nM.

On to `CNC1(CNc2ccc3c(n2)sc2nc(-c4ccc(NC(=O)Nc5cc(C(C)(C)C)on5)cc4)cn23)CC1` [compound 63-2], for which the IC50 in the assay with MV4-11 cell (Homo sapiens) turned out to be 0.58 nM. Turning to `CC(C)(C)c1cc(NC(=O)Nc2ccc(-c3cn4c(n3)sc3nc(OCCCN5CCOCC5)ccc34)cc2)no1` [compound 28-6], the IC50 on FLT3 was determined as 47 nM; in the assay with MV4-11 cell (Homo sapiens) it was 0.4 nM.

Turning to `CC(C)(C)c1cc(NC(=O)Nc2ccc(-c3cn4c(n3)sc3nc(OC[C@@H]5CCCN5)ccc34)cc2)no1` [compound 35-4], the IC50 in the assay with MV4-11 cell (Homo sapiens) came out at 0.9 nM.
